The assay concerns the target T1, Deoxyhypusine synthase (Plasmodium falciparum, UniProt Q9GSW0).
T1 sequence (Q9GSW0 whole entry): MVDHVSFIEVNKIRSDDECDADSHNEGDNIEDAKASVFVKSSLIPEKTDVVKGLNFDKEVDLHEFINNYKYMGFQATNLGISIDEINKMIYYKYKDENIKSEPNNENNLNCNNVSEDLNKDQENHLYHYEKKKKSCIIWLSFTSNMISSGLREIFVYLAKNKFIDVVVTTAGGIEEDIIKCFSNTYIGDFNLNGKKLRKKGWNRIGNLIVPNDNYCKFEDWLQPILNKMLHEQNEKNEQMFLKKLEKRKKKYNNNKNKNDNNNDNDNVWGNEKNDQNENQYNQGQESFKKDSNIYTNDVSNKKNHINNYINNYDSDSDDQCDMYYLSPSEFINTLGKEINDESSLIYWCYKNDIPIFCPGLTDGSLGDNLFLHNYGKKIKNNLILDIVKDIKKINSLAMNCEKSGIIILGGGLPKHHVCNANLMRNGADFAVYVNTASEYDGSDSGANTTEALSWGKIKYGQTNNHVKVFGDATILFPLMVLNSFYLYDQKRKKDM
Put plainly: Inhibition of recombinant deoxyhypusine synthase in Plasmodium falciparum NF54.

What is called Ki is a dissociation constant, usually derived from enzyme kinetics or from competition with a known ligand. On to `NCCCCCCCN`, for which the inhibition constant (Ki) is 50 µM.
In the case of `N=C(N)NCCCCCCCN`, the Ki came to 0.1 µM.

Source of the values: ChEMBL document CHEMBL1143744, “Modification of eukaryotic initiation factor 5A from Plasmodium vivax by a truncated deoxyhypusine synthase from Plasmodium falciparum: An enzyme with dual enzymatic properties” (Bioorg Med Chem, 2007).
